Reference: patent US7425577B2, “Lipase-colipase inhibitor” (Forskarpatent 1 SYD AB, priority 2003, dated 2008)

Molecular target: T1, Lipase and colipase, purified from human pancreatic gland (Homo sapiens, UniProt P04118+P16233)
T1 construct: Lipase, Purified from Human Pancreatic Gland; Colipase, Purified from Human Pancreatic Gland; from tissue; host or cells: human pancreatic gland
T1 sequence (P16233 17-465): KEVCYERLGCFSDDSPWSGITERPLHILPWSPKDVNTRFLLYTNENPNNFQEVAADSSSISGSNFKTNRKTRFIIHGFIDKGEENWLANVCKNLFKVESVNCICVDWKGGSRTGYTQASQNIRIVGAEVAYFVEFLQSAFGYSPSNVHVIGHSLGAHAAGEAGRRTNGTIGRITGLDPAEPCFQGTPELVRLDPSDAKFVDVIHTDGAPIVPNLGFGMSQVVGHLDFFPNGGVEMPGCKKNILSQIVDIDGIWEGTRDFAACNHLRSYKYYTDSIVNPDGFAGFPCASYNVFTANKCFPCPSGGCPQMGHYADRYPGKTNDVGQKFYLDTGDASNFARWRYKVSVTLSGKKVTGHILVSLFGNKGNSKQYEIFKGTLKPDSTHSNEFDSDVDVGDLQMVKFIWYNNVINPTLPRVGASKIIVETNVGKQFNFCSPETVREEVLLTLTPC
T1 sequence (P04118 23-112): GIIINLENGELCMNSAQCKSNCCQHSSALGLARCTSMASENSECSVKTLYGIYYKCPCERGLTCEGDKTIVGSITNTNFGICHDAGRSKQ
Assay: Determination of lipolysis by colipase/lipase (pH-stat, tributyrine emulsion with NaTDC)
Format: biochemical
Source text: Determination of Lipolysis by Colipase/Lipase
The most important enzyme in the gastro-intestinal tract being responsible for the hydrolysis of lipids/fats in the gastro-intestinal tract is lipase, pancreatic lipase, together with its protein cofactor colipase. These are two proteins, which are secreted from the pancreatic gland. […] The colipase binds to lipase in a molar 1:1 complex and then moves the complex to the triglyceride surface. In the binding between lipase and colipase hydrogen bonds are present, between arg38 of the colipase and ser343 of the lipase and from glu15 of the colipase and the asn241 of the lipase molecules. In the binding of colipase to the substrate (the lipids/fat) there are both hydrophobic bonds as well as ion-ion bonds present. By an isolated lack of colipase it has been shown that colipase has a decisive role for the lipolysis in the gastro-intestinal tract of humans. Pure lipase and colipase have been produced in accordance with the following.
Lipase, Purified from Human Pancreatic Gland
Colipase, Purified from Human Pancreatic Gland
0.5 ml of tributyrine is mixed with 15 ml of a buffer containing 1 mM CaCl2, 150 mM NaCl, 2 mM tris-maleate, pH 7.0 and 4 mM NaTDC (sodium taurodeoxycholate). An emulsion is obtained by continuous stirring. pH is titrated by means of a pH-state, where 0.1 N NaOH is added automatically to keep an constant pH. 10 μl of lipase is added from a stock solution containing 70 units of lipase/ml, followed by 10 μl of colipase from a stock solution containing 1 mg colipase/ml. An activity is registered which is determined to be 100%. An addition of an inhibitor is then made. A new assay is used for every concentration, prepared in the same way. The inhibition is registered as percentage of control. A dose-response plot is obtained for the compounds having an inhibiting ability.

Structure (SMILES): CCCCCCCCOCCN(C)C [dimethylaminoethyl octyl ether]
- Activity Inhibitor (amount of inhibitor 2.49 μmol, control activity 0.304): 0.249 µmol/min
- Activity Inhibitor (amount of inhibitor 4.98 μmol, control activity 0.319): 0.215 µmol/min
- Activity Inhibitor (amount of inhibitor 8.71 μmol, control activity 0.314): 0.136 µmol/min
- Activity Inhibitor (amount of inhibitor 12.44 μmol, control activity 0.356): 0.069 µmol/min
- Activity Inhibitor (amount of inhibitor 18.66 μmol, control activity 0.32): 0.053 µmol/min
- Activity Inhibitor (amount of inhibitor 21.89 μmol, control activity 0.293): 0.035 µmol/min
- Activity Inhibitor (amount of inhibitor 24.88 μmol, control activity 0.278): 0 µmol/min

Structure (SMILES): CCCCCCCCCCCCCCN(C)C [N,N-dimethyl tetradecyl amine]
- Activity Inhibitor (amount of inhibitor 1.04 μmol, control activity 0.226): 0.179 µmol/min
- Activity Inhibitor (amount of inhibitor 2.07 μmol, control activity 0.243): 0.121 µmol/min
- Activity Inhibitor (amount of inhibitor 4.14 μmol, control activity 0.223): 0.056 µmol/min
- Activity Inhibitor (amount of inhibitor 7.25 μmol, control activity 0.257): 0.045 µmol/min
- Activity Inhibitor (amount of inhibitor 10.35 μmol, control activity 0.282): 0.033 µmol/min
- Activity Inhibitor (amount of inhibitor 15.53 μmol, control activity 0.256): 0 µmol/min

Structure (SMILES): CCCCCCCCCCCCOCCOCCOCCOCCOCCOCCOCCOCCOCCN(CCC)CCC [dipropylaminoethyl octaethyleneglycol dodecyl ether]
- Activity Inhibitor (amount of inhibitor 0.2 μmol, control activity 0.256): 0.256 µmol/min
- Activity Inhibitor (amount of inhibitor 0.4 μmol, control activity 0.28): 0.256 µmol/min
- Activity Inhibitor (amount of inhibitor 0.8 μmol, control activity 0.259): 0.209 µmol/min
- Activity Inhibitor (amount of inhibitor 2.01 μmol, control activity 0.25): 0.136 µmol/min
- Activity Inhibitor (amount of inhibitor 4.02 μmol, control activity 0.246): 0.096 µmol/min
- Activity Inhibitor (amount of inhibitor 8.04 μmol, control activity 0.244): 0.033 µmol/min
- Activity Inhibitor (amount of inhibitor 12.06 μmol, control activity 0.252): 0.011 µmol/min
- Activity Inhibitor (amount of inhibitor 16.08 μmol, control activity 0.247): 0 µmol/min

Structure (SMILES): CCCCCCCCCCCCOCCOCCOCCOCCOCCOCCN(C)C [dimethylaminoethyl pentaethyleneglycol dodecyl ether]
- Activity Inhibitor (amount of inhibitor 0.26 μmol, control activity 0.307): 0.273 µmol/min
- Activity Inhibitor (amount of inhibitor 0.52 μmol, control activity 0.29): 0.236 µmol/min
- Activity Inhibitor (amount of inhibitor 1.05 μmol, control activity 0.302): 0.222 µmol/min
- Activity Inhibitor (amount of inhibitor 2.62 μmol, control activity 0.299): 0.13 µmol/min
- Activity Inhibitor (amount of inhibitor 5.23 μmol, control activity 0.314): 0.083 µmol/min
- Activity Inhibitor (amount of inhibitor 7.85 μmol, control activity 0.312): 0.04 µmol/min
- Activity Inhibitor (amount of inhibitor 10.46 μmol, control activity 0.3): 0.015 µmol/min
- Activity Inhibitor (amount of inhibitor 15.69 μmol, control activity 0.319): 0.009 µmol/min
- Activity Inhibitor (amount of inhibitor 20.92 μmol, control activity 0.282): 0 µmol/min
